# Where “and” joins values, the source holds several entries; their conditions need not be identical. Identical values can stand only once. Entries after “also recorded” stand apart in the source; their conditions may differ.
# Assays:
# afferent arterioles = conditions: ref [24]; cited from earlier work
# AT2 receptor = target: T1, AT2 receptor (Rattus norvegicus, UniProt P35351); assay: Competition of 125I-Sarthran binding in AR42J pancreatic cell membranes; conditions: 0.2 nM 125I-Sarthran, antagonists up to 10^−5 M, n = 3
# T1 sequence (P35351 1-363): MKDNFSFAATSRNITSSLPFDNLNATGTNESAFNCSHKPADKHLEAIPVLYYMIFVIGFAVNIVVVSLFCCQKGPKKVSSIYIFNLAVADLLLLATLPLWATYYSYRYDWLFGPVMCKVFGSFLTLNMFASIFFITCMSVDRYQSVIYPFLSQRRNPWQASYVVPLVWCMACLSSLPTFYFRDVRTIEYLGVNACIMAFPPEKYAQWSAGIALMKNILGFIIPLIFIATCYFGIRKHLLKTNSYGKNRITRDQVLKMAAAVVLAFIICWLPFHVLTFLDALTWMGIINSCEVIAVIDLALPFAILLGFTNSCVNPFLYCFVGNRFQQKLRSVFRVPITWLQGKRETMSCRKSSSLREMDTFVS
# mesenteric artery = conditions: ref [21]; cited from earlier work
# SHR and WKY rats = SHR and WKY rats following AT1 receptor blockade; ref [36]; cited from earlier work
# [1] = tested on: Ang-(1–7)-dependent vasorelaxation of the isolated renal artery; assay: Effect of angiotensin receptor antagonists on Ang-; parameters: species or system male Wistar rat; conditions: for Effect of receptor antagonist on Ang-(1–7)-induced vasorelaxation (in words): DALA, DPRO, Sarthran 10^−5 M, losartan, PD123319 10^−6 M, 20 min
# aortic segments = conditions: ref [28]; cited from earlier work
# bovine endothelial cells = conditions: cited from earlier work; for Effect on NO stimulation by Ang-(1–7) or AVE0991: bovine endothelial cells, ref [14],[37]
# older WKY rats = conditions: 20 months, ref [5]; cited from earlier work
# [2] = tested on: Mas-related receptor MrgD; conditions: aortic rings; ref [19]; cited from earlier work
# [3] = tested on: anti-nociceptive actions of Ang-(1–7); conditions: ref [13]; cited from earlier work
# [4] = tested on: Ang-(1–7)-dependent vasorelaxation of the isolated renal artery; assay: Effect of K+ channel blockers on Ang-; parameters: species or system male Wistar rat; conditions: glibenclamide 10^−5 M; PE 3 × 10^−7 M; mean ± SEM, N = 8; * P < 0.05 vs. control
# AT2 and AT1 sites = conditions: ref [4],[30],[31],[35]; cited from earlier work
# mesenteric vessels = conditions: rat mesentery; ref [20]; cited from earlier work
# [5] = tested on: Ang-(1–7)-dependent vasorelaxation of the isolated renal artery; assay: Effect of NOS, soluble guanylate cyclase and cyclooxygenase inhibitors on Ang-; parameters: species or system male Wistar rat; conditions: for Maximal vasorelaxation response to Ang-(1–7) in presence of L-NAME / Effect of signaling inhibitor on Ang-(1–7)-induced vasorelaxation (in words): L-NAME 10^−4 M; for Maximal vasorelaxation response to Ang-(1–7) in presence of L-NAME: N = 6; for Effect of signaling inhibitor on Ang-(1–7)-induced vasorelaxation (in words): indomethacin 10^−6 M
# [6] = tested on: Ang-(1–7)-dependent vasorelaxation of the isolated renal artery; assay: Effect of bradykinin B2 receptor antagonist on Ang-; parameters: species or system male Wistar rat
# blood pressure = conditions: ref [1],[16],[17]; cited from earlier work
# [7] = tested on: blood flow in multiple vascular beds; conditions: kidney, mesentery and skin; ref [27]; cited from earlier work
molecule,measurement,setting,value
CCc1nc2c(C)cc(C)nc2n1Cc1ccc(-c2ccccc2-c2nn[nH]n2)cc1 [L158809],Effect on Ang-(1–7)-induced vasodilation of renal afferent arterioles,afferent arterioles,not reversed
Cc1cc(Cn2cnc3c2C[C@@H](C(=O)O)N(C(=O)C(c2ccccc2)c2ccccc2)C3)ccc1N(C)C [PD123319],Competition of 125I-Sarthran binding (in words),AT2 receptor,essentially abolished binding
same,Effect on Ang-(1–7)-induced vasodilation of renal afferent arterioles,afferent arterioles,not reversed
same,Effect on vasorelaxation of the mesenteric artery by Ang-(1–7),mesenteric artery,but not the AT2 antagonist PD123319
same,Effect on depressor effects of Ang-(1–7),SHR and WKY rats,abolished
same,Effect of receptor antagonist on Ang-(1–7)-induced vasorelaxation (in words),[1],significantly attenuated
same,Effect on Ang-(1–7)-dependent relaxation of aortic segments,aortic segments,no inhibitory effect
same,Effect on NO stimulation by Ang-(1–7) or AVE0991,bovine endothelial cells,blocked
same,Effect on depressor actions of Ang-(1–7),older WKY rats,blocked the depressor actions of Ang-(1–7)
same,Effect on the effects of [Ala^1]-Ang-(1–7),[2],abolished the effects of [Ala^1]-Ang-(1–7)
COc1ccc(Cl)cc1C(=O)NCCc1ccc(S(=O)(=O)NC(=O)NC2CCCCC2)cc1 [Glibenclamide],Effect on anti-nociceptive actions of Ang-(1–7),[3],abolished the anti-nociceptive actions of Ang-(1–7)
same,Maximal vasorelaxation response to Ang-(1–7) in presence of glibenclamide,[4],22.3 ± 2.3 ^* %
[D-Proline^7]-Ang-(1–7) [D-Pro^7-Ang-(1–7)],Effect of receptor antagonist on Ang-(1–7)-induced vasorelaxation (in words),[1],significantly inhibited; also recorded: essentially abolished
same,Action at AT2 and AT1 sites,AT2 and AT1 sites,lack of actions at AT2 and AT1 sites
same,Effect on the effects of [Ala^1]-Ang-(1–7),[2],abolished the effects of [Ala^1]-Ang-(1–7)
"COC(=O)[C@@H](N)CCCNC(N)=N[N+](=O)[O-] [L-NAME, nitro-l-arginine methyl ester]",Effect on Ang-(1–7)-dependent dilation of mesenteric vessels,mesenteric vessels,inhibition of the Ang-(1–7) vasorelaxant effects
same,Maximal vasorelaxation response to Ang-(1–7) in presence of L-NAME,"[5]; Ang-(1–7) 10^−12 to 10^−6 M, PE 3 × 10^−7 M, mean ± SEM, * P < 0.05 vs. control",13.4 ± 2.0 ^* %
same,Maximal vasorelaxation response to Ang-(1–7) in presence of L-NAME,"[5]; Ang-(1–7) 10^−12 to 10^−6 M, PE 3 × 10^−7 M, mean ± SEM, * P < 0.05 vs. control, listed as LNAME",13 ± 2%
same,Effect of signaling inhibitor on Ang-(1–7)-induced vasorelaxation (in words),[5]; ODQ 10^−5 M,attenuated the Ang-(1–7) response
same,Effect on depressor effects of Ang-(1–7),SHR and WKY rats,sensitive
same,Effect on NO stimulation by Ang-(1–7) or AVE0991,bovine endothelial cells,blocked
HOE140,Effect on depressor effects of Ang-(1–7),SHR and WKY rats,sensitive
same,Effect on NO stimulation by Ang-(1–7) or AVE0991,bovine endothelial cells,blocked
same,Effect of B2 antagonist on Ang-(1–7)-induced vasorelaxation (in words),"[6]; HOE140 5 × 10^−8 M, alone or with L-NAME 10^−4 M",markedly inhibited the vasorelaxation to Ang-(1–7); also recorded: significantly attenuated
same,Maximal vasorelaxation response to Ang-(1–7) in presence of HOE140,"[6]; HOE140 5 × 10^−8 M, PE 3 × 10^−7 M, mean ± SEM, N = 9, * P < 0.05 vs. control 42.4 ± 5.8",14.0 ± 7.0 ^* %
same,Ang-(1–7)-induced relaxation (maximal response) in presence of HOE140,"[6]; HOE140 10^−6 M as printed in the abstract, PE 3 × 10^−7 M, mean ± SEM",14 ± 7%
"O=c1onc2cnc3ccccc3n12 [ODQ, 1H-[1,2,4] oxadiazolo-quinoxalin]",Maximal vasorelaxation response to Ang-(1–7) in presence of ODQ,"[5]; ODQ 10^−5 M, Ang-(1–7) 10^−12 to 10^−6 M, PE 3 × 10^−7 M, mean ± SEM, N = 8, * P < 0.05 vs. control",10 ± 2% and 10.0 ± 2.1 ^* %
COc1ccc2c(c1)c(CC(=O)O)c(C)n2C(=O)c1ccc(Cl)cc1 [Indomethacin],Effect on blood pressure-lowering effects of Ang-(1–7),blood pressure,attenuated the blood pressure-lowering effects of the peptide
same,Effect on Ang-(1–7)-dependent dilation of mesenteric vessels,mesenteric vessels,inhibition of the Ang-(1–7) vasorelaxant effects
same,Effect of signaling inhibitor on Ang-(1–7)-induced vasorelaxation (in words),[5]; ODQ 10^−5 M,failed to block the Ang-(1–7) response
CCOc1nc2cccc(C(=O)O)c2n1Cc1ccc(-c2ccccc2-c2nnn[nH]2)cc1 [candesartan],Effect on vasorelaxation of the mesenteric artery by Ang-(1–7),mesenteric artery,blocked
same,Effect on Ang-(1–7)-dependent NO release,bovine endothelial cells; ref [14],attenuated Ang-(1–7)-dependent NO release
CCCCc1nc(Cl)c(CO)n1Cc1ccc(-c2ccccc2-c2nn[nH]n2)cc1 [Losartan],Effect on vasorelaxation of the mesenteric artery by Ang-(1–7),mesenteric artery,blocked
same,Maximal vasorelaxation response to Ang-(1–7) in presence of antagonist,[1],22 ± 6%
same,Effect of receptor antagonist on Ang-(1–7)-induced vasorelaxation (in words),[1],significantly attenuated
same,Effect on Ang-(1–7)-dependent relaxation of aortic segments,aortic segments,no inhibitory effect
[D-Alanine^7]-Ang-(1–7) [D-Ala^7-Ang-(1–7)],Effect on Ang-(1–7)-induced vasodilation of renal afferent arterioles,afferent arterioles,abolished
same,Effect on vasorelaxation of the mesenteric artery by Ang-(1–7),mesenteric artery,blocked
same,Effect on Ang-(1–7)-dependent dilation of mesenteric vessels,mesenteric vessels,sensitivity to DALA blockade
same,Effect on increase in blood flow by Ang-(1–7),[7],abolished
same,Effect of receptor antagonist on Ang-(1–7)-induced vasorelaxation (in words),[1],significantly inhibited; also recorded: essentially abolished
same,Effect on Ang-(1–7)-dependent relaxation of aortic segments,aortic segments,abolished
same,Effect on NO stimulation by Ang-(1–7) or AVE0991,bovine endothelial cells,blocked
same,Action at AT2 and AT1 sites,AT2 and AT1 sites,lack of actions at AT2 and AT1 sites
same,Effect on depressor actions of Ang-(1–7),older WKY rats,blocked the depressor actions of Ang-(1–7)
same,Effect on the effects of [Ala^1]-Ang-(1–7),[2],ineffective

# Reference: PMC6688182 (Peptides, 2017)
